Test results: ChEMBL document CHEMBL1201862, “PubChem BioAssay data set” (2004)
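Dose response: 5 concentrations. Exposure: 48 h. Format: 96-well plates. Endpoint: linear interpolation; highest concentration if not reached. GI50 marks 50% less growth.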 Activity calls are given as the source filed them. No stated cut-off is given here; in the data, active = GI50 up to about 1.1 µM and inactive = higher.

Tests used:
Assay in all cases: growth of human tumour cells (NCI), 48 h
SK-OV-3 = system: SK-OV-3
HCT-116 = system: HCT-116
T47D = system: T47D
SF-539 = system: SF-539
HL-60 = system: HL-60
MDA-MB-231 = system: MDA-MB-231
HT-29 = system: HT-29
M14 = system: M14
NCI-H522 = system: NCI-H522
NCI-H460 = system: NCI-H460
HOP-62 = system: HOP-62
HOP-92 = system: HOP-92
PC-3 = system: PC-3
HCC 2998 = system: HCC 2998
OVCAR-4 = system: OVCAR-4
MOLT-4 = system: MOLT-4
K562 = system: K562
RXF 393 = system: RXF 393
OVCAR-8 = system: OVCAR-8
SR = system: SR

CC1=Nc2c(O)nc(S)nc2NC(c2c(Cl)cccc2Cl)C1 (stereo not given)
GI50 (SK-OV-3): 7280 nM (inactive)
GI50 (HCT-116): 760 nM (active)
GI50 (T47D): 1480 nM (inactive)
GI50 (SF-539): 1750 nM (inactive)
GI50 (HL-60): 552 nM (active)
GI50 (MDA-MB-231): 519 nM (active)
GI50 (HT-29): 998 nM (active)
GI50 (M14): 2320 nM (inactive)
GI50 (NCI-H522): 1980 nM (inactive)
GI50 (NCI-H460): 1920 nM (inactive)
GI50 (HOP-62): 6840 nM (inactive)
GI50 (HOP-92): 9310 nM (inactive)
GI50 (PC-3): 1170 nM (inactive)
GI50 (HCC 2998): 10900 nM (inactive)
GI50 (OVCAR-4): 2740 nM (inactive)
GI50 (MOLT-4): 646 nM (active)
GI50 (K562): 649 nM (active)
GI50 (RXF 393): 5260 nM (inactive)
GI50 (OVCAR-8): 877 nM (active)
GI50 (SR): 372 nM (active)
